Measured values as given in patent US8927463B2, “Sensitive high throughput method for DNA damage and repair” (priority 2013, dated 2015).
Entries after “also recorded” stand apart in the source; their conditions may differ. Where two headings read alike, the source gives them in different places.

Test system: dsDNA
Assay: Real-time DNA melting assay (PicoGreen/ROX melting curves)
From the text: Components of this assay include 1) a reaction vessel free from DNase and RNase, 2) a dsDNA-specific dye, 3) a reference dye 4) dsDNA, and 5) the genotoxicant(s). […] As the sample is heated in the real-time thermocycler, the dsDNA melts becoming single-stranded. Single-stranded DNA no longer supports PicoGreen fluorescence, thus the relative amount of PicoGreen to ROX fluorescence declines proportionately to the loss of DNA base-pairing. As will be understood by the skilled artisan upon reading this disclosure, alternative fluorometric dyes or spectrophotometric dyes can be used in the method of the present invention.
In one embodiment, the raw dsDNA-specific fluorescence is normalized to the corresponding reference fluorescence at each temperature point to correct for decreased dye fluorescence resulting directly from the increasing solution temperature. This normalized fluorescence is then graphed as a function of temperature to produce the melting curve. Initial fluorescence from this curve is used to determine the extent of double-strand breakage. The first derivative of this melting curve is then plotted and used to determine both the initial melting temperature and the melting rate across the entire temperature gradient. […] A schematic representation of the typical melting curves is shown in FIG. 1 wherein, with increasing pH, salinity, or temperature, DNA dissociation increases resulting in a decrease in relative fluorescence.
The ability to detect DNA-damaging agents was first examined under conditions under which only the pharmaceutical agent was allowed to interact with the dsDNA.
(§1) Samples were analyzed using an ABI 7300 real time thermocycler over a temperature range of 4° C. to 99° C. Data is presented as PicoGreen fluorescence normalized to ROX.
as §1
Samples were analyzed over a temperature range of 4° C. to 99° C. using an ABI 7300 real time thermocycler. Data is presented as PicoGreen fluorescence normalized to ROX. […] When single strand breaks are in close proximity, double strand breaks can result.

[1] = dsDNA 1,000 ng/ml treated with increasing concentrations of compound, PicoGreen normalized to ROX, 4° C. to 99° C.

## CC[C@H](c1ccc(O)cc1)[C@@H](CC)c1ccc(O)cc1 [hexestrol]
  initial melting temperature: decrease in the initial melting temperature

## O=C1C(=O)c2ccccc2-c2ccccc21 [phenanthrenequinone]
dsDNA 1,000 ng/ml treated with increasing concentrations of compound, PicoGreen fluorescence normalized to ROX, 4° C. to 99° C.
  initial melting temperature: increase in the initial melting temperature

## CC[C@@]1(O)C(=O)OCc2c1cc1n(c2=O)Cc2cc3ccccc3nc2-1 [camptothecin]
dsDNA 1,000 ng/ml treated with non-genotoxic concentrations, PicoGreen normalized to ROX, 4° C. to 99° C.
  effect on DNA melting curves: lack of effect; also recorded: does not alter DNA melting

## C[C@]12CC[C@@H]3c4cc(O)c(O)cc4CC[C@H]3[C@@H]1CC[C@@H]2O [2-hydroxyestradiol]
[1]
  initial fluorescence: increase in initial fluorescence
  initial melting slope: increase in initial melting slope
